ChEMBL document CHEMBL5331047 (Eur J Med Chem, 2022)
pEC50, pIC50: −log10 of the molar value.

Assays:
[1] = Cmax in rat at 20 mg/kg; type: ADME, organism-based; set-up: dose 20 mg/kg; settings: in vivo
[2] = AUC in rat at 20 mg/kg; type: ADME, organism-based; set-up: dose 20 mg/kg; settings: in vivo
Influenza A virus = assay: Antiviral activity against influenza A virus H5N1 infected in dog MDCK cells assessed as viral growth inhibition; type: functional, organism-based
[3] = Cmax in rat at 10 mg/kg; type: ADME, organism-based; set-up: dose 10 mg/kg; settings: in vivo
[4] = AUC in rat at 10 mg/kg; type: ADME, organism-based; set-up: dose 10 mg/kg; settings: in vivo
Neuraminidase = Neuraminidase (Influenza A virus, UniProt B4URF0)
[5] = Oral bioavailability in ferret at 10 mg/kg measured upto 24 hrs by LC-MS/MS assay; type: ADME, organism-based, Mustela putorius furo; settings: in vivo
[6] = Oral bioavailability in rat; type: ADME, organism-based; settings: in vivo

## CCC(CC)O[C@@H]1C=C(C(=O)O)C[C@H](NCc2ccc(Sc3ccccc3)cc2)[C@H]1NC(C)=O
[1]
  Cmax: 407 ng/mL
[2]
  AUC: 1500 ng·h/mL

## CCC(CC)O[C@@H]1C=C(C(=O)O)C[C@H](NC(=O)COCCOCCOCCOCCN[C@H](C(=O)N2C[C@H](O)CC2C(=O)NCc2ccc(-c3scnc3C)cc2)C(C)(C)C)[C@H]1NC(C)=O (some centres undefined)
Influenza A virus
  pEC50: 6.54

## CCC(CC)O[C@@H]1C=C(C(=O)O)CC(N)[C@H]1NC(C)=O (some centres undefined)
[3]
  Cmax: 30 ng/mL
Influenza A virus
  pEC50: 5.64
[4]
  AUC: 300 ng·h/mL

## CC(=O)N[C@@H]1[C@@H](N)CC(C(=O)O)=C[C@H]1OC1CCSC1 (some centres undefined)
Neuraminidase
  pIC50: 8.54

## CCCCCCCC(=O)OC[C@@H](O)[C@@H](OC)[C@@H]1OC(C(=O)O)=C[C@H](NC(=N)N)[C@H]1NC(C)=O [LANINAMIVIR OCTANOATE]
[5]
  bioavailability: 3.5%

## CCC(CC)[C@H](NC(C)=O)[C@@H]1[C@H](O)[C@@H](C(=O)O)C[C@H]1NC(=N)N [PERAMIVIR ANHYDROUS]
[6]
  bioavailability: 2.5%
